As usually defined, the IC50 is the concentration that gives 50% inhibition.

Our source for the IC50 values is patent US8987314B2, “Amide, urea or sulfone amide linked benzothiazole inhibitors of endothelial lipase” (Bristol-Myers Squibb Company, priority 2012, dated 2015).

SMILES strings stand for the structures. Where two headings read alike, the source gives them in different places.

Test [1] deals with hepatic lipase (HL) (Homo sapiens (Human), UniProt P11150). As to the kind of experiment: HL assay: hepatic lipase activity with fluorescent substrate A10070 in DMPG vesicles. It is filed as biochemical. In a few lines: (§1)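 Compounds were preincubated with enzyme for 30 min at 37° C before FRET-substrate vesicles (A10070 in DMPG, 0.11 mole fraction) were added. Reaction rates were obtained from the 300–900 sec slope of fluorescence at 490/530 nm.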
hepatic lipase (HL), sequence (P11150 23-499, species assumed): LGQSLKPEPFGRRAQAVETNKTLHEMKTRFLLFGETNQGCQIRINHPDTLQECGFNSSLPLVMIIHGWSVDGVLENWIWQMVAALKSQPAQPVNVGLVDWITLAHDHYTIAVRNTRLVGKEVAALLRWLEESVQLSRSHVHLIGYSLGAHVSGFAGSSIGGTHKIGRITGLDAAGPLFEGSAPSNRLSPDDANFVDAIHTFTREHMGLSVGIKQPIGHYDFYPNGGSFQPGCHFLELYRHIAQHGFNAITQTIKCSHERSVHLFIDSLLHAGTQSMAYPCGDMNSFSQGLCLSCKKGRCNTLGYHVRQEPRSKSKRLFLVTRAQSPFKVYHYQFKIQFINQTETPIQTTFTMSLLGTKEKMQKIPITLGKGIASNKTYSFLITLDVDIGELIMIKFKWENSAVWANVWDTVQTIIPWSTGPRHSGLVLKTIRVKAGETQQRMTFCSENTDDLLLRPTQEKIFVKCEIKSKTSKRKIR

Test [2] addresses Endothelial lipase (EL) (Homo sapiens (Human), UniProt Q9Y5X9). The test is described as follows: EL assay: endothelial lipase activity with fluorescent substrate A10070 in DMPG vesicles. The class given is biochemical. In a few lines: as §1
Setting [3] is: HL partially purified from conditioned media of COS cells, 30 min incubation with compound at 37° C., A10070/DMPG vesicles.
Setting [4] is: EL from conditioned media of HT-1080 cells, 30 min incubation with compound at 37° C., A10070/DMPG vesicles.

Endothelial lipase (EL), sequence (Q9Y5X9 21-500): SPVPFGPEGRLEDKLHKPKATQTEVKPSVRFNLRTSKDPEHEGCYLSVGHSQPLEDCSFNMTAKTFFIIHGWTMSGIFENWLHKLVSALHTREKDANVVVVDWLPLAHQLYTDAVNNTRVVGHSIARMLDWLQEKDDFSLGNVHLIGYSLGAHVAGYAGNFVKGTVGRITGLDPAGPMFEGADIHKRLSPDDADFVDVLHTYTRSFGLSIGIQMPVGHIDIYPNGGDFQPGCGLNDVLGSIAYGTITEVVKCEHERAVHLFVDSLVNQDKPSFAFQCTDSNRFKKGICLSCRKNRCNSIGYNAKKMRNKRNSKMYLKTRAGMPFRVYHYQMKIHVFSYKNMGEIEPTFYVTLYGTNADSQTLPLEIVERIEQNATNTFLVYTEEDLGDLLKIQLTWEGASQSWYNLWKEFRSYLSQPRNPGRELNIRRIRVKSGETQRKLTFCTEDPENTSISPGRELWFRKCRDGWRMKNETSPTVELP

For the compound `CS(=O)(=O)C(C(=O)NCCS(N)(=O)=O)c1nc2cc(C(=O)N3CC(F)(F)C3)ccc2s1` (centres unmarked) [Example B393, 2-[5-(3,3-difluoroazetidine-1-carbonyl)-1,3-benzothiazol-2-yl]-2-methanesulfonyl-N-(2-sulfamoylethyl)acetamide], the IC50 amounted to 5750 nM in test [1] and 50.3 nM in test [2].
For `CS(=O)(=O)C(C(=O)NCCS(N)(=O)=O)c1nc2cc(C(=O)NCCc3ccc(F)cc3)ccc2s1` (centres unmarked) [Example B394, N-[2-(4-fluorophenyl)ethyl]-2-{methanesulfonyl[(2-sulfa-moylethyl)carbamoyl]meth-yl}-1,3-benzothiazole-5-carboxamide], in that order: 1600 nM and 37.4 nM.
`CS(=O)(=O)C(C(=O)NCCS(N)(=O)=O)c1nc2ccc(-c3nnc(-c4ccc(F)cc4)o3)cc2s1` (centres unmarked) [Example B395, 2-(6-(5-(4-Fluorophenyl)-1,3,4-oxadiazol-2-yl)benzo[d]thiazol-2-yl)-2-(methylsulfonyl)-N-(2-sulfamoylethyl)acetamide]: the IC50 in test [1] (setting [3]) was 275 nM; in test [2] (setting [4]), 148 nM.
The corresponding values for `CCNC(=O)CNC(=O)C(c1nc2ccc(-c3ccc(F)nc3)cc2s1)S(=O)(=O)CCOC` (centres unmarked) [Example B397, N-[(ethylcarbamoyl)methyl]-2-[6-(6-fluoropyridin-3-yl)-1,3-benzothiazol-2-yl]-2-(2-methoxyethanesulfonyl)acetamide] are 460 nM and 109 nM.
